According to PubChem BioAssay (NCI):
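Where inhibition never reached the appropriate level, the endpoint shown equals the highest concentration tested. Otherwise, values were interpolated linearly from a five-concentration, 48-hour dose response in 96-well plates. Here, GI50 denotes the concentration required for 50% inhibition of growth. TGI: concentration producing complete growth inhibition.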

Columns and labels:
Assay in all cases: NCI-60 cell line screen, 48 h
MCF7 breast = tested on: MCF7 breast
NCI-H226 lung = tested on: NCI-H226 lung
RPMI-8226 leukemia = tested on: RPMI-8226 leukemia
SF-295 CNS = tested on: SF-295 CNS
SNB-75 CNS = tested on: SNB-75 CNS
OVCAR-8 ovarian = tested on: OVCAR-8 ovarian
UACC-62 melanoma = tested on: UACC-62 melanoma
U251 CNS = tested on: U251 CNS
SK-OV-3 ovarian = tested on: SK-OV-3 ovarian
OVCAR-4 ovarian = tested on: OVCAR-4 ovarian

Compound	TGI (MCF7 breast) [µM]	TGI (NCI-H226 lung) [µM]	GI50 (RPMI-8226 leukemia) [µM]	TGI (RPMI-8226 leukemia) [µM]	TGI (SF-295 CNS) [µM]	TGI (SNB-75 CNS) [µM]	TGI (OVCAR-8 ovarian) [µM]	TGI (UACC-62 melanoma) [µM]	TGI (U251 CNS) [µM]	TGI (SK-OV-3 ovarian) [µM]	TGI (OVCAR-4 ovarian) [µM]	GI50 (MCF7 breast) [µM]	GI50 (NCI-H226 lung) [µM]	GI50 (SF-295 CNS) [µM]	GI50 (SNB-75 CNS) [µM]	GI50 (OVCAR-8 ovarian) [µM]	GI50 (UACC-62 melanoma) [µM]	GI50 (U251 CNS) [µM]	GI50 (SK-OV-3 ovarian) [µM]	GI50 (OVCAR-4 ovarian) [µM]
C=C(C)C(=O)OC1CC2=CC(CC3(C)OC3C3OC(=O)C(=C)C13)OC2=O (stereo not drawn)	14.7	39	0.865	2.75	32.7	28.5	18.1	22	32.5	36.8	29.9	–	–	–	–	–	–	–	–	–
CN(c1ccc(NC(=O)Nc2ccc(OC(F)(F)F)cc2)cc1)c1ccnc(Nc2cccc(S(N)(=O)=O)c2)n1	5.56	9.51	2.7	10.1	6.48	6.61	7.17	7.13	6.64	8.96	8.03	1.06	3.28	0.861	2.38	3.07	3.02	3.07	4.65	3.06
CC1=CCC(OC(=O)C(C)(C)CCC(O)(C(=O)OC2(C(C)C)CCC3(C)OC3C2)C(C)C)(C(C)C)CC1 (stereo not drawn)	0.448	1.85	0.234	8.85	1.39	1.41	15.5	1.11	1.12	5.81	1.87	0.121	0.693	0.69	0.0258	0.611	0.298	0.363	0.692	0.608
N=c1c2c(-c3ccccc3)c(-c3ccccc3)n(Cc3ccccc3)c2ncn1CCCO	2.07	12.9	2.86	16	3.32	8.43	22.2	14.4	13.3	17.9	13.4	0.472	0.817	0.58	1.38	0.739	1.91	0.704	4.18	1.43
CN(C)c1ccc(-c2cc(-c3ccc(Nc4nc(Nc5ccccc5)nc(Nc5ccc(Cl)cc5)n4)cc3)nc(N)n2)cc1	15	98.7	3.32	20	16.6	37.7	> 100	40	25	> 100	> 100	2.84	12.1	2.4	3.27	5.24	6.26	5.06	18.8	5.01
COC(=O)c1cc(-c2cc(OC)c(OC)c(OC)c2)[nH]c1N/N=C/c1c(Cl)cccc1Cl	53	40.3	1.94	> 34.4	22.8	4.62	20.3	16.2	10.1	13.3	2.68	1.77	9.54	1.01	0.941	1.48	1.47	2.17	3.07	0.666
COc1cc2c3c(n(CCCNCC(OC)OC)c(=O)c2cc1OC)-c1cc2c(cc1C3=O)OCO2	> 48.6	42.5	< 0.01	0.197	49.4	> 59.1	38.4	22.6	> 48.6	> 100	42.7	< 0.0315	6.63	0.303	17	8.31	1.63	4.32	22.8	20.1
CC(C)(O)C1CCC(Nc2ccc3ncc(-c4cccc(C(F)(F)F)c4)n3n2)CC1 (stereo not drawn)	12.5	27	0.266	0.79	4.67	8.99	13.4	8.83	11.9	9.19	12.5	2.75	2.19	1.66	1.77	2.97	1.97	2.36	2.68	2.62
C[C@]12CC[C@@H]3c4ccc(O)cc4CC[C@H]3[C@@H]1CC[C@@H]2NS(=O)(=O)c1cccc(C(F)(F)F)c1	8.49	17.2	3.26	14.2	3.63	15.5	19.3	10.7	14.3	15.3	12.4	2.72	3.88	1.86	2.98	4.65	2.66	3.75	4.78	2.95
Nc1ncnc2c1ncn2CC(O)C(=O)O (stereo not drawn)	> 100	> 100	–	> 100	> 100	> 100	> 100	> 100	> 100	> 100	> 100	–	–	–	–	–	–	–	–	–
NC1=C(Br)C(=O)c2ncccc2C1=O	1.99	3.59	–	3.81	1.41	0.664	2.24	0.713	0.671	3.24	2.49	0.367	–	–	–	–	–	–	–	–
C/C([O-])=C1\Cc2ccccc2C1=O.C/C([O-])=C1\Cc2ccccc2C1=O.CC[O-].CC[O-].[Ti+4]	> 100	35.7	14.8	68.8	32	45.9	50.4	31.6	26.2	81.7	> 84.5	22	7.47	14.5	21.6	12.9	12.4	9.36	20.3	27.2
O=C1C=C[C@@]23C[C@@H](Nc4c(O)c5c6c(c42)=NCCC=6C=N5)SC3=C1	4.04	28.7	3.13	> 34.6	19.3	25.3	3.66	3.31	7.92	32.8	3.27	2	–	6.68	12	1.87	1.64	2.72	–	1.83
COc1cc(C(O)c2nc3ccccc3s2)cc(OC)c1OC (stereo not drawn)	> 100	> 100	7.9	> 100	> 100	> 100	> 100	> 100	> 100	> 100	> 100	41.3	47.1	6.29	33.2	> 100	37.8	> 100	> 100	30.9
O=Cc1cn(Cc2cccc(Cl)c2)c2ccccc12	19.4	0.0499	4.76	25.2	14.2	25.1	31.3	6.45	21.8	16	18.3	1.85	–	0.948	8.99	10.3	0.533	9.61	1.8	2.88
Cn1ccnc1C(=O)/C=C/c1ccc(CC(=O)Nc2ccc(S(F)(F)(F)(F)F)cc2)cc1	5.54	7.02	0.517	2.03	4.73	3.88	16.5	5.87	3.07	11.6	9.07	0.625	2.93	2.16	1.83	4.94	2.89	0.898	3.86	2.35
Cn1ccc2c(c1=O)C(=O)c1nccc3c1c-2nc1ccccc13	2.34	26.4	2.58	8.68	3.02	2.43	–	2.93	2.79	3.15	2.6	0.871	12.5	1.54	1.17	–	1.54	1.38	1.74	1.31
CC(C)[C@@]12C[C@@H](OC(=O)COC(=O)/C=C/c3ccccc3)[C@@](C)(O1)[C@@H]1CC[C@@H](C)[C@H]1[C@@H]2OC(=O)/C=C/c1ccccc1	> 100	> 100	> 89.4	> 100	> 100	> 100	> 100	> 100	> 100	> 100	> 100	> 100	> 100	> 100	> 100	0.173	> 100	> 100	> 100	> 100
COc1ccc(C(=O)/C=C/c2c(C(F)(F)F)nc3sccn23)cc1OC	34.9	> 100	1.62	> 100	22.6	> 100	> 100	> 100	> 100	> 100	> 100	0.766	6.95	3.14	6.87	2.4	4.85	1.87	3.41	4.08
Cc1nc2sc(C(=O)Nc3cccc4ccccc34)c(N)c2cc1C(=O)/C=C/c1ccccc1	> 50	1.56	0.14	0.5	3.89	> 10.4	> 13.4	3.8	1.01	> 50	> 15.7	0.201	0.389	0.514	0.232	0.534	0.235	0.236	1.35	1.02
C=CC1=C[C@@H]2[C@@H]3O[C@]4(CC[C@H](O4)[C@@H](C)C[C@@H](O)C3=O)C[C@H](O)C3=NCC[C@@]32CC1	< 0.00333	< 0.00333	< 0.00333	< 0.00333	< 0.00333	< 0.00333	0.044	0.00412	0.39	0.00795	0.00522	< 0.00333	< 0.00333	< 0.00333	< 0.00333	< 0.00333	< 0.00333	< 0.00333	< 0.00333	< 0.00333
CCc1cccc2c3c(sc12)C(c1ccc(Cl)cc1)C(C#N)=C(N)O3 (stereo not drawn)	4.66	9.43	0.442	7.95	1.17	0.718	11	5.27	5.26	29.8	17.3	0.334	0.881	0.306	0.195	0.869	0.351	0.496	1.14	1.7
O=C(/C=C/c1cccs1)c1ccc(Nc2nc(Nc3ccc(F)cc3)nc(Nc3ccc(F)cc3)n2)cc1	46.2	> 100	20.9	> 100	46.6	70.4	51.2	> 100	35.4	> 100	46.2	14	> 100	20.4	22.5	21.7	> 100	18.3	56	17.7
CCN(CCNc1ccc(C)c2sc3cc(Cl)ccc3c(=O)c12)CC(C)O (stereo not drawn)	3.01	4.72	1.71	3.67	3.72	3.57	–	3.44	4.24	3.44	24.9	1.5	2.18	1.67	1.75	–	1.82	1.94	1.76	4.92
Cc1nn(-c2ccccc2)c2c1CC(=O)Nc1ccccc1-2	> 100	> 100	0.0826	0.456	3.06	–	–	73.4	> 100	43.8	> 100	0.0788	0.465	–	0.21	–	0.158	0.282	0.332	–
Cc1ccc(NC(=O)c2cc3ccccc3c(N=Nc3ccccc3O)c2O)c(C)c1	13.7	13.1	–	11.1	10.5	2.5	3.7	–	–	16.7	11.6	–	–	–	–	–	–	–	–	–
